Results published in PubChem BioAssay (NCI).
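1) Cells in 96-well plates. 2) Compound, 48 h, 5 concentrations. 3) Linear interpolation between surrounding doses. 4) Unreached endpoint = highest concentration. GI50 marks 50% less growth. TGI: total growth inhibition.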

Columns and labels:
Assay in all cases: NCI tumour cell line growth inhibition, 48 h
CAKI-1 renal = test system: CAKI-1 renal
DMS 273 small cell lung = test system: DMS 273 small cell lung
IGROV1 ovarian = test system: IGROV1 ovarian
LOX IMVI melanoma = test system: LOX IMVI melanoma
OVCAR-3 ovarian = test system: OVCAR-3 ovarian
RXF 393 renal = test system: RXF 393 renal
SN12C renal = test system: SN12C renal
SNB-19 CNS = test system: SNB-19 CNS
SNB-78 CNS = test system: SNB-78 CNS
U251 CNS = test system: U251 CNS

Structure (SMILES)	TGI (CAKI-1 renal) [µM]	TGI (DMS 273 small cell lung) [µM]	TGI (IGROV1 ovarian) [µM]	TGI (LOX IMVI melanoma) [µM]	TGI (OVCAR-3 ovarian) [µM]	TGI (RXF 393 renal) [µM]	TGI (SN12C renal) [µM]	TGI (SNB-19 CNS) [µM]	TGI (SNB-78 CNS) [µM]	TGI (U251 CNS) [µM]	GI50 (CAKI-1 renal) [µM]	GI50 (DMS 273 small cell lung) [µM]	GI50 (IGROV1 ovarian) [µM]	GI50 (LOX IMVI melanoma) [µM]	GI50 (OVCAR-3 ovarian) [µM]	GI50 (RXF 393 renal) [µM]	GI50 (SN12C renal) [µM]	GI50 (SNB-19 CNS) [µM]	GI50 (SNB-78 CNS) [µM]	GI50 (U251 CNS) [µM]
Oc1c(Br)cc2c(c1Br)-c1c(c(O)c3c4c1=NCCC=4C=N3)NCC2	42.2	27.7	27.4	20.9	8.47	28.7	29.3	35.7	13.4	24.5										
Brc1ccc2[nH]c3c(C4=NCCC4)nccc3c2c1	> 53.1	> 76	> 78.7	> 46.6	> 100	71.2	> 91.6	> 100	> 100	> 38.8										
N#C[S-].[La+3].c1ccc(-c2ccccn2)nc1.c1ccc(-c2ccccn2)nc1.c1ccc(-c2ccccn2)nc1	60.8	88.5	60.5	68.3	> 100	84.7	> 100	> 100	> 100	> 100	12.9	19.1	25.6	7.3	64.6	22.5	19.2	54.6	59.4	20.1
